Measured values as given in ChEMBL document CHEMBL5365422 (Bioorg Med Chem Lett, 2023).
≈ marks a conversion by molar mass, not a printed value. Calls of active or inactive are those of the source. No cut-off for these calls is given here.

What was measured:
[1] = Stability of compound in human plasma assessed as drug degradation at 37 degC measured after 90 mins by LC-MS analysis; format: ADME, cell-free; conditions: read-out: Drug degradation
[2] = tested on: Panel NCI-60 (60 carcinoma cell lines); test: Cytotoxicity against human Panel NCI-60 (60 carcinoma cell lines) cells assessed as reduction in cell viability; format: functional
[3] = target: Albumin (Homo sapiens, UniProt P02768); test: Binding affinity to human serum albumin in phosphate buffer at pH 7.4 incubated at 298 K
[4] = target: T1, Polyunsaturated fatty acid 5-lipoxygenase (Homo sapiens, UniProt P09917); test: Inhibition of 5-LOX (unknown orgin) using arachidonic acid as substrate incubated for 10 mins by colorimetric assay
T1 sequence (P09917 whole entry): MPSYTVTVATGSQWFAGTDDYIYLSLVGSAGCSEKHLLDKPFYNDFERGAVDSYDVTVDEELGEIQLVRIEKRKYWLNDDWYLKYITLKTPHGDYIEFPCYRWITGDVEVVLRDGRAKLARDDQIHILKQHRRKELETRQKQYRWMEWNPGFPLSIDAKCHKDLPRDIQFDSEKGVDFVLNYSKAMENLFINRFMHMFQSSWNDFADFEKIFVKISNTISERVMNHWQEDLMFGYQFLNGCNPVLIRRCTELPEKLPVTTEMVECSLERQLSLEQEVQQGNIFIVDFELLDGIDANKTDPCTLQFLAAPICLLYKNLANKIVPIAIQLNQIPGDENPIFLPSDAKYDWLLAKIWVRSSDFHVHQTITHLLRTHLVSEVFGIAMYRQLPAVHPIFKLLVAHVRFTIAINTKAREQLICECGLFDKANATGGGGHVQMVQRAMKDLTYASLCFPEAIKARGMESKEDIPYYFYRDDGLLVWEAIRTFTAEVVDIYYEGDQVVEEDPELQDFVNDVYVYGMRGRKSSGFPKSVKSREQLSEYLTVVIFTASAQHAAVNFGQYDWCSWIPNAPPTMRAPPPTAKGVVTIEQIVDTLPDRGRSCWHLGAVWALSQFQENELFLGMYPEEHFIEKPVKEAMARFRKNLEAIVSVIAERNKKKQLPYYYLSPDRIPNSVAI

[5] = target: T2, Polyunsaturated fatty acid 5-lipoxygenase (Homo sapiens) (UniProt P09917); test: Binding affinity to 5-LOX (unknown origin)
T2 sequence (whole entry): T1 sequence (P09917 whole entry)

[6] = Solubility of the compound in PBS buffer by UV spectrum based solubility assay; format: physicochemical
[7] = target: T2, Polyunsaturated fatty acid 5-lipoxygenase (Homo sapiens); test: Competitive inhibition of 5-LOX (unknown origin) using arachidonic acid as substrate by Michaelis-Menten equation based kinetic analysis
[8] = Half life in human liver microsome by LC-MS/MS analysis; format: ADME; conditions: liver microsomes

Sequence of Albumin (P02768 whole entry): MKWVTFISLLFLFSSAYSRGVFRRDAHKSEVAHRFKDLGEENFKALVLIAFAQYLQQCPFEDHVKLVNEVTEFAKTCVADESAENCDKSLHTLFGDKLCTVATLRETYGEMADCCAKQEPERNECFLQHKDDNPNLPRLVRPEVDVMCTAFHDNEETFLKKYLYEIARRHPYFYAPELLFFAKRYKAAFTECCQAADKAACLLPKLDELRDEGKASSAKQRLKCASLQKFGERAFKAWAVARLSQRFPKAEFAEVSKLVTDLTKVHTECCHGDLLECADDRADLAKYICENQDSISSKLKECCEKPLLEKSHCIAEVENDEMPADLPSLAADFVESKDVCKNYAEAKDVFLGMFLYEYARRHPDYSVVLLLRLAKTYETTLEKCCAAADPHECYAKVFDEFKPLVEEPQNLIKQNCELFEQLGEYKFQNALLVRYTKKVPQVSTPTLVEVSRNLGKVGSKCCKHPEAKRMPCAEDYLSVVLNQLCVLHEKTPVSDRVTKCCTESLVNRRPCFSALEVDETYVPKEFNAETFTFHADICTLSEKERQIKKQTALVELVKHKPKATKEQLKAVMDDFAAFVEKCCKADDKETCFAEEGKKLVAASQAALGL

Row | Structure (SMILES) | metabolised at 1.5 h [1] | LC50 (concentration killing 50% of cells) [2] | K [3] | IC50 [4] | K [5] | solubility [6] | inhibition [7] | half-life [8]
1 | C=CCn1cc(Cc2c(O)n(-c3c(Cl)cccc3Cl)c3ccccc23)c2ccccc21 | 4% | > 100 µM | 7.6 10^2/M | 0.07 µM | 1.8 10^8/M |  |  | 
2 | O=C(O)Cn1cccc1Cc1c(O)n(-c2c(Cl)cccc2Cl)c2ccccc12 | 4% | > 100 µM | 1.4 10^4/M | 0.43 µM | 4.9 10^8/M |  |  | 
3 | O=C1C(Cc2ccc[nH]2)c2ccccc2N1c1c(Cl)cccc1Cl (stereo not drawn) | 4% | > 100 µM | 3.8 10^4/M | 0.03 µM | 1.1 10^8/M | 26 µM (≈ 9.29 µg/mL) | Active | 1.5 h
4 | COc1cc(CC2C(=O)N(c3c(Cl)cccc3Cl)c3ccccc32)cc(OC)c1OC (stereo not drawn) | 4% | > 100 µM | 6.9 10^4/M | 0.26 µM | 0.9 10^8/M |  |  | 
5 | O=C1C(Cc2c[nH]c3ccccc23)c2ccccc2N1c1c(Cl)cccc1Cl (stereo not drawn) | 4% | > 100 µM | 1.1 10^3/M | 0.31 µM | 4.2 10^8/M |  |  | 
6 | CCOC(=O)Cn1cc(Cc2c(O)n(-c3c(Cl)cccc3Cl)c3ccccc23)c2ccccc21 | 4% | > 100 µM | 2.7 10^3/M | 0.63 µM | 4.5 10^8/M |  |  | 
7 | O=C1C(Cc2cccn2Cc2ccccc2)c2ccccc2N1c1c(Cl)cccc1Cl (stereo not drawn) | 4% | > 100 µM | 1.2 10^4/M | 0.49 µM | 2.4 10^8/M |  |  | 
8 | Oc1c(Cc2cn(Cc3ccccc3)c3ccccc23)c2ccccc2n1-c1c(Cl)cccc1Cl | 4% | > 100 µM | 1.4 10^4/M | 0.1 µM | 0.8 10^8/M |  |  | 
9 | C#CCn1cc(Cc2c(O)n(-c3c(Cl)cccc3Cl)c3ccccc23)c2ccccc21 | 4% | > 100 µM | 1.1 10^4/M | > 10 µM | 3.1 10^8/M |  |  | 
10 | C#CCn1cccc1CC1c2ccccc2N(c2c(Cl)cccc2Cl)C1O (stereo not drawn) | 4% | > 100 µM | 4.1 10^4/M | 0.25 µM | 0.9 10^8/M |  |  | 
11 | C=CCn1cccc1CC1C(=O)N(c2c(Cl)cccc2Cl)c2ccccc21 (stereo not drawn) | 4% | > 100 µM | 1.7 10^4/M | 1.77 µM | 1.4 10^8/M |  |  | 
12 | CCOC(=O)Cn1cccc1CC1c2ccccc2N(c2c(Cl)cccc2Cl)C1O (stereo not drawn) | 4% | > 100 µM | 1.4 10^4/M | 1.31 µM | 1.7 10^8/M |  |  | 
13 | O=C(O)Cn1cc(Cc2c(O)n(-c3c(Cl)cccc3Cl)c3ccccc23)c2ccccc21 | 4% | > 100 µM | 5.2 10^4/M | 1.23 µM | 2.5 10^8/M |  |  | 
